Laboratory results from a melting point compilation (Tetko et al.; mined from patent text by program, amines drawn as free bases though some values may be those of a salt).

First: Cc1ccc(N(C)C(=O)CN(C(=O)CNC(=O)Nc2cccc(C)c2)c2ccccc2)cc1
Second: Brc1ccc2c(c1)c1cc(Br)ccc1n2-c1ccccc1
The melting point of the first is lower: 162 °C for the first, 163 to 164 °C for the second.

First: CS(=O)(=O)c1ccc(Oc2cc(OC3CCOCC3)c3[nH]c(C4=NCC(CCO)S4)cc3c2)cc1 (stereo not given)
Second: Cc1oc(-c2ccccc2)nc1COc1ccc2cc(CC3SC(=O)NC3=O)oc2c1 (stereo not given)
The melting point of the first is lower: 116 to 117 °C for the first, 179 to 180 °C for the second.

First: CCCCCCCCCCCCCCCCC(Br)CO (stereo not given)
Second: CCCCCCCCCCCCCCCCCC(=O)ON1C(=O)c2ccccc2C1=O
The melting point of the first is lower: 39 to 39.5 °C for the first, 76 to 80 °C for the second.

Compared with `COc1cc(OC)nc(NC(=O)NS(=O)(=O)Oc2ccccc2-c2nnco2)n1`, `COC(=O)c1cc(OC)c(OC)cc1NC(=O)c1sccc1S(=O)(=O)Nc1onc(C)c1Cl` is higher in melting point: 161 to 164 °C for the first, 167 to 168 °C for the second.

First: COc1cc(C2CCN(C[C@@H](C)O)CC2)ccc1Nc1ncc2ccc(-c3ccccc3OC)n2n1
Second: Fc1ccc(-n2nc(-c3nc(-c4ccccc4)cs3)c3c2C2CCC3C2)c(F)c1 (stereo not given)
The melting point of the first is lower: 67 to 74 °C for the first, 128 to 130 °C for the second.

First: COC(=O)c1cccnc1NC(=O)C(C)CS (stereo not given)
Second: CC(C)(C)OC(=O)NCCNC(=O)c1ncccc1Br
The melting point of the first is lower: 50 to 52 °C for the first, 125 to 130 °C for the second.

Compared with `Cc1ccnc(C(=O)c2[nH]c3cc(C(F)(F)F)ccc3c2CC(=O)O)c1`, `COCC(Oc1ccc(-n2c(C)nc3cc(C(F)(F)F)ccc32)cc1)C(=O)O` (stereo not given) is lower in melting point: 210 to 220 °C for the first, 111 to 112 °C for the second.

Compared with `COc1cccc(CNC(=O)c2nc3ccccc3c(=O)[nH]2)c1`, `Cc1cc(OCc2ccccc2)c(C)cc1CO` is lower in melting point: 186 to 189 °C for the first, 58 to 59 °C for the second.

Compared with `CN(C(=O)OC(C)(C)C)C1CCN(CC2(C)Cn3cc([N+](=O)[O-])nc3O2)CC1` (stereo not given), `CCSc1nc(NC(C)=O)ccc1[N+](=O)[O-]` is lower in melting point: 199 to 201 °C for the first, 168 °C for the second.

First: CCn1c(=O)n(CCCCC(C)(O)CC)c(=O)c2c1ncn2Cc1ccccc1 (stereo not given)
Second: CCOC(=O)c1cc2c(=O)n(CC)c3ccccc3n2c1
The melting point of the first is lower: 93 to 94 °C for the first, 184 to 186 °C for the second.

Compared with `O=c1[nH]c2ccc(Cl)cc2n1-c1cccc(Cl)c1`, `O=C(NS(=O)(=O)c1ccc(O)cc1)c1ccc(Cl)cc1Cl` is higher in melting point: 112 °C for the first, 155 to 157 °C for the second.

First: CC(C)c1nc2cc(NC(=O)c3c(C(=O)N4CCC4)cnn3C)ccn2n1
Second: Cc1ccnc(NC(=O)c2c(-c3ccc(F)cc3)c(-c3ccc(F)cc3)c(C=O)n2C(C)C)n1
The melting point of the first is higher: 226 to 227 °C for the first, 173 to 175 °C for the second.

First: COc1cc2c(cc1OC)C(C=Cc1cccc(OC)c1OC)=NN(C(C)=O)C(C)C2 (stereo not given)
Second: COc1cc2c(cc1N1CCN(C)CC1)N(C(=O)c1ccc(-c3ccc(-c4noc(C)n4)cc3C)cc1)CC2
The melting point of the first is lower: 72 to 74 °C for the first, 213 to 214 °C for the second.

Compared with `CCCCCCCCCCCC(=O)c1ccc(-c2ccc(OC)c(F)c2)cc1`, `CCCCc1nc2cscc2n1Cc1ccc(-c2ccccc2C(=O)O)cc1` is higher in melting point: 124 to 125 °C for the first, 168 °C for the second.

Compared with `COc1nc2cccnc2n1-c1ccc(-c2nc(-c3nccs3)cn2-c2ccc(C)nc2)cc1`, `Cn1c(-c2ccc(-n3ccnc3)cc2)cnc1[C@H](Cc1ccccn1)N(C=O)c1cc2cc(Cl)ccc2o1` is lower in melting point: 190 to 192 °C for the first, 63 to 73 °C for the second.

First: Clc1cccc(N2CCC3CCc4cnccc4C3=N2)c1 (stereo not given)
Second: C=CCNC(=O)C1CCc2cc(-c3ccccc3)ccc2O1 (stereo not given)
The melting point of the first is higher: 152 to 155 °C for the first, 123 to 124 °C for the second.

First: Cc1cc(-c2cc(C(F)F)n3nccc3n2)ccc1Cl
Second: CC(C)(C)OC(=O)Nc1ccc(C#Cc2ccccc2Cl)cc1N
The melting point of the first is lower: 107 °C for the first, 120 to 122 °C for the second.

First: CC(=O)OC1CCC2(C)C(CCC3C2CCC2(C)C(C(C)=O)CCC32)C1 (stereo not given)
Second: CC(=O)N1CC=C(c2cc3c(cc2F)c(=O)c2c(=O)[nH]sc2n3C2CC2)CC1
The melting point of the first is lower: 141 to 142 °C for the first, 243 to 244 °C for the second.

First: CC(C)(C)OC(=O)Nc1cc(Cl)cc(C(F)(F)F)c1
Second: O=C(Cl)C(OCc1ccc(-c2ccc(Cl)cc2)cc1)(C(F)(F)F)C(F)(F)F
The melting point of the first is higher: 91 to 92 °C for the first, 30 to 35 °C for the second.

First: COc1ccc(S(=O)(=O)N2CCc3cccc(-c4ccccn4)c32)cc1
Second: C(=C\c1nc(COc2ccc(CCCCCn3ccnc3)cc2)co1)/c1ccccc1
The melting point of the first is higher: 195 to 197 °C for the first, 101 to 102 °C for the second.

First: CCCN(CCC)Cc1csc(-c2ncn3c2[C@@H]2CCCN2C(=O)c2c(Cl)cccc2-3)n1
Second: CCc1nc(CCc2ccc(NC(=O)/C=C/c3cnn(CC)c3-c3ccc(F)cc3)cc2)cs1
The melting point of the first is higher: 213 to 214 °C for the first, 190 to 191 °C for the second.

First: CCC(C)Nc1c(-c2c(F)cc(F)cc2F)c(F)nc2ncncc12 (stereo not given)
Second: CC(=NNC(N)=O)c1ccc(NS(C)(=O)=O)c(Oc2ccc(F)cc2F)c1
The melting point of the first is higher: 199 °C for the first, 187 to 189 °C for the second.

Compared with `CCOCc1nc2c(N)nc3ccccc3c2n1CCOCCNC(=O)c1ccccc1`, `NC1=NC(c2ccc(OC(F)(F)F)cc2)(c2cccc(CCC3CC3)c2)C2=NCCCN12` (stereo not given) is lower in melting point: 154 to 156 °C for the first, 65 to 77 °C for the second.

First: CCS(=O)(=O)NC1CCCOc2ccccc21 (stereo not given)
Second: NC(=O)/C=C1\CC(O)c2ccc(F)cc21 (stereo not given)
The melting point of the first is lower: 109 to 111 °C for the first, 166 to 168 °C for the second.

Compared with `COC(=O)c1cc(-n2c(=O)c3c(n(C)c2=O)CCC3)c(F)cc1Cl`, `CCCCCCCCCCc1c(C(=O)O)sc2c1sc1c3sc(C(=O)O)c(CCCCCCCCCC)c3sc21` is higher in melting point: 138 to 141 °C for the first, 316 to 318 °C for the second.
